Experimental data: article PMC8683641 (Journal of medicinal chemistry, 2021)

How the values were obtained:
hCB1 = hCB1 (Homo sapiens, UniProt P21554); format: binding; conditions: propyl tail versus pentyl
[1] = molecular target: hCB2 Cannabinoid Receptors (Homo sapiens, UniProt P34972); experiment: [35S]GTPγS binding assay for efficacy, CHO-hCB2 membranes; format: biochemical; conditions: from [35S]GTPγS binding
hCB2 [2] = conditions: literature values; cited from earlier work
hCB2 [3] = format: binding, human; conditions: Ki hCB1 / Ki hCB2

hCB2 Cannabinoid Receptors, sequence (P34972 whole entry): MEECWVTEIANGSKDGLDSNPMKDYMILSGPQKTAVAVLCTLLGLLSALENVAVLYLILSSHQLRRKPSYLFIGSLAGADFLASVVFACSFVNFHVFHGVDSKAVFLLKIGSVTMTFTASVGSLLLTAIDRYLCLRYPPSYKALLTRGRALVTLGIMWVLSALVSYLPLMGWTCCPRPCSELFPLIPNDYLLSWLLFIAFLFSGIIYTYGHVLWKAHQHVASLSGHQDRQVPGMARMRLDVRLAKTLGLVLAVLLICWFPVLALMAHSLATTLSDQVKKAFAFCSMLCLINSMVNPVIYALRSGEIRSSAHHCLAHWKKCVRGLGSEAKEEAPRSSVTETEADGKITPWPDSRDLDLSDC
hCB1, sequence (P21554 whole entry): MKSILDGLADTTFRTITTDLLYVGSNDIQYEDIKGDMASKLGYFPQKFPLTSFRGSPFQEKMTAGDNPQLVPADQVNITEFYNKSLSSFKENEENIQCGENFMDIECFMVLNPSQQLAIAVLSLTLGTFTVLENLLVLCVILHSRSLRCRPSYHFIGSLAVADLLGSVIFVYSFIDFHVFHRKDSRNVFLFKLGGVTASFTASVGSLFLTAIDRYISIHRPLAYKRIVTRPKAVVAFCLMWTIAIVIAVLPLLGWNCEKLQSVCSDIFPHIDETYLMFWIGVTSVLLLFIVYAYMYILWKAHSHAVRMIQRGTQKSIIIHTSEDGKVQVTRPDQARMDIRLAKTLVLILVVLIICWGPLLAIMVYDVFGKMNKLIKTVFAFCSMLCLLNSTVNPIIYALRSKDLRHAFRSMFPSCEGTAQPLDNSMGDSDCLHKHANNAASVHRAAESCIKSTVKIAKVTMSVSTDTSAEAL

SMILES: CCCn1cc(C(=O)c2ccc3c(c2)CC(C)(C)C3)c2ccccc21 [GBD-005, (2,2-dimethyl-2,3-dihydro-1H-inden-5-yl) (1-propyl-1H-indol-3-yl)methanone]
- reduction in CB1R affinity (hCB1): > 60 fold
- functional characterization at hCB2 [1]: neutral antagonists

SMILES: CCCn1cc(C(=O)c2cccc3ccccc23)c2ccccc21 [JWH-072]
- SI (CB2 selectivity) (hCB2 [2]): 6

SMILES: C#CCCCn1cc(C(=O)c2ccc3c(c2)CC(C)(C)C3)c2ccccc21 [GBD-014, (2,2-Dimethyl-2,3-dihydro-1H-inden-5-yl) (1-(pent-4-yn-1-yl)-1H-indol-3-yl)methanone]
- functional characterization at hCB2 ([1]; listed as 35): neutral antagonists

SMILES: CCCCCn1cc(C(=O)c2ccc3c(c2)CC(C)(C)C3)c2ccccc21 [GBD-003, (2,2-Dimethyl-2,3-dihydro-1H-inden-5-yl) (1-pentyl-1H-indol-3-yl)methanone]
- functional characterization at hCB2 [1]: CB2R antagonist

SMILES: CCCCCn1cc(C(=O)c2cccc3c2CC(C)(C)C3)c2ccccc21 [GBD-002, (2,2-dimethyl-2,3-dihydro-1H-inden-4-yl) (1-pentyl-1H-indol-3-yl)methanone]
- functional characterization at hCB2 [1]: full agonist

SMILES: C#CCCCn1c(C)c(C(=O)c2ccc3c(c2)CC(C)(C)C3)c2ccccc21 [GBD-029, (2,2-Dimethyl-2,3-dihydro-1H-inden-5-yl) (2-methyl-1-(pent-4-yn-1-yl)-1H-indol-3-yl)methanone]
- functional characterization at hCB2 ([1]; listed as 49): agonist

SMILES: CCCn1c(C)c(C(=O)c2cccc3ccccc23)c2ccccc21 [JWH-015]
- SI (CB2 selectivity) (hCB2 [2]): 24

SMILES: C=CCCCn1cc(C(=O)c2ccc3c(c2)CC(C)(C)C3)c2ccccc21 [GBD-013, (2,2-Dimethyl-2,3-dihydro-1H-inden-5-yl) (1-(pent-4-en-1-yl)-1H-indol-3-yl)methanone]
- selectivity index (SI) for CB2 (hCB2 [3]): 10
